Measurements reported in patent publication US8530504B2, “Pyrazolothiazole compound” (Eisai R&D Management Co., Ltd., priority 2009, dated 2013).

Target: human CRFR1 (Homo sapiens (Human), UniProt P34998)
Assay: CRFR1 Binding Test;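 note: nonspecific binding was determined with a 4,000-fold excess of unlabelled sauvagine and subtracted from every reading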
Settings: competition with 100 pM 125I-CRF, SPA method, membrane fraction of human CRFR1-expressing HEK293 cells; read-out: CRF1 receptor binding capacity IC50

Sequence of human CRFR1 (P34998 24-415): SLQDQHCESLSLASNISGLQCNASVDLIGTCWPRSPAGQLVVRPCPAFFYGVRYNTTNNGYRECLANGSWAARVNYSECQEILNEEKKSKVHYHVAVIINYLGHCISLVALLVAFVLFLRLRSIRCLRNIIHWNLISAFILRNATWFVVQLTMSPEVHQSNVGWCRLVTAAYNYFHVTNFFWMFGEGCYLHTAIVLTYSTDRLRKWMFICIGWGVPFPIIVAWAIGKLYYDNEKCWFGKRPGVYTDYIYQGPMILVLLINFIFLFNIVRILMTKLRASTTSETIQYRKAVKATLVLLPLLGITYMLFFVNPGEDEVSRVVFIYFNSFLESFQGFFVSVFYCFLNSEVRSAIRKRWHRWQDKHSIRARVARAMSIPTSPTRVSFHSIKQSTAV

Row | Compound | IC50 [nM]
1 | COCc1cc(OC)c(-c2csc3c(N(CC4CC4)c4cccnc4)c(OC)nn23)c(OC)c1 [Example 89, N-(Cyclopropylmethyl)-3-[2,6-dimethoxy-4-(methoxymethyl)phenyl]-6-methoxy-N-pyridin-3-ylpyrazolo[5,1-b][1,3]thiazole-7-amine] | 52
2 | CCCN(CC1CCOC1)c1c(OC)nn2c(-c3cnc(N(C)C)cc3OC)csc12 (stereo not shown) [Example 16, [3-(6-Dimethylamino-4-methoxy-pyridin-3-yl)-6-methoxy-pyrazolo[5,1-b][1,3]thiazol-7-yl]-propyl-(tetrahydro-furan-3-ylmethyl)-amine] | 132
3 | COCc1cc(OC)c(-c2csc3c(N(CCCF)Cc4ccncc4)c(OC)nn23)c(OC)c1 [Example 70, 3-[2,6-Dimethoxy-4-(methoxymethyl)phenyl]-N-(3-fluoropropyl)-6-methoxy-N-(pyridin-4-ylmethyl)-pyrazolo[5,1-b][1,3]thiazole-7-amine] | 61
4 | CCc1cc(OC)c(-c2csc3c(N(CC4CC4)CC4CCOC4)c(OC)nn23)c(OC)c1 (stereo not shown) [Example 23, Cyclopropylmethyl-[3-(4-ethyl-2,6-dimethoxy-phenyl)-6-methoxy-pyrazolo[5,1-b][1,3]thiazol-7-yl]-(tetrahydro-furan-3-ylmethyl)amine] | 44
5 | COCc1cc(OC)c(-c2csc3c(N(CC4CC4)CC4C5COCC54)c(OC)nn23)c(OC)c1 (single isomer, unassigned; diastereomer 2) [Example 96, N-(Cyclopropylmethyl)-3-[2,6-dimethoxy-4-(methoxymethyl)phenyl]-6-methoxy-N-[3-oxabicyclo[3.1.0]hex-6-ylmethyl]-pyrazolo[5,1-b][1,3]thiazole-7-amine (diastereomer 2)] | 62
6 | CCCN(Cc1ccncc1)c1c(OC)nn2c(-c3c(OC)cc(COC)cc3OC)csc12 [Example 44, 3-[2,6-Dimethoxy-4-(methoxymethyl)phenyl]-6-methoxy-N-propyl-N-(pyridin-4-ylmethyl)pyrazolo[5,1-b][1,3]thiazole-7-amine] | 53
7 | COc1cc(C)cc(OC)c1-c1csc2c(N(CC3CC3)CC3CCOC3)c(OC)nn12 (stereo not shown) [Example 26, N-(Cyclopropylmethyl)-3-(2,6-dimethoxy-4-methylphenyl)-6-methoxy-N-(tetrahydrofuran-3-ylmethyl)pyrazolo[5,1-b][1,3]thiazole-7-amine] | 33
8 | COc1cc(Cl)cc(OC)c1-c1csc2c(N(CC3CC3)CC3CCOC3)c(OC)nn12 (stereo not shown) [Example 30, 3-(4-Chloro-2,6-dimethoxyphenyl)-N-(cyclopropylmethyl)-6-methoxy-N-(tetrahydrofuran-3-ylmethyl)pyrazolo[5,1-b][1,3]thiazole-7-amine] | 49
9 | COCc1cc(OC)c(-c2csc3c(N(CCCF)Cc4ccccn4)c(OC)nn23)c(OC)c1 [Example 72, 3-[2,6-Dimethoxy-4-(methoxymethyl)phenyl]-N-(3-fluoropropyl)-6-methoxy-N-(pyridin-2-ylmethyl)-pyrazolo[5,1-b][1,3]thiazole-7-amine] | 75
10 | COCc1cc(OC)c(-c2csc3c(N(CC4CCOC4)CC4CC(F)(F)C4)c(OC)nn23)c(OC)c1 (stereo not shown) [Example 37, N-[(3,3-Difluorocyclobutyl)methyl]-3-[2,6-dimethoxy-4-(methoxymethyl)phenyl]-6-methoxy-N-(tetrahydrofuran-3-ylmethyl)pyrazolo[5,1-b][1,3]thiazole-7-amine] | 95
11 | CCCN(CC1CCOC1)c1c(OCC)nn2c(-c3c(OC)cc(COC)cc3OC)csc12 (stereo not shown) [Example 84, 3-[2,6-Dimethoxy-4-(methoxymethyl)phenyl]-6-ethoxy-N-propyl-N-(tetrahydrofuran-3-ylmethyl)pyrazolo[5,1-b][1,3]thiazole-7-amine] | 51
12 | COCc1cc(OC)c(-c2c(SC)sc3c(N(CC4CCOCC4)CC4CC4)c(C)nn23)c(OC)c1 [Example 1, N-(Cyclopropylmethyl)-3-[2,6-dimethoxy-4-(methoxymethyl)phenyl]-6-methyl-2-(methylthio)-N-(tetrahydro-2H-pyran-4-ylmethyl)pyrazolo[5,1-b][1,3]thiazole-7-amine] | 93
13 | CCCCN(c1c(OC)nn2c(-c3c(OC)cc(C=O)cc3OC)csc12)C1CCOCC1 [Example 103] | 101

Continued, values first:

Row | IC50 [nM] | Compound
14 | 45 | COCc1cc(OC)c(-c2csc3c(N(CC4CCC4)C4CCOC4)c(OC)nn23)c(OC)c1 (stereo not shown) [Example 29, N-(Cyclobutylmethyl)-3-[2,6-dimethoxy-4-(methoxymethyl)phenyl]-6-methoxy-N-(tetrahydrofuran-3-yl)pyrazolo[5,1-b][1,3]thiazole-7-amine]
15 | 19 | COCCN(CC(C)C)c1c(OC)nn2c(-c3c(OC)cc(COC)cc3OC)csc12 [Example 55, 3-[2,6-Dimethoxy-4-(methoxymethyl)phenyl]-N-isobutyl-6-methoxy-N-(2-methoxyethyl)pyrazolo[5,1-b][1,3]thiazole-7-amine]
16 | 56 | COCc1cc(OC)c(-c2csc3c(N(CC4CC4)C4CCOC4)c(OC)nn23)c(OC)c1 (stereo not shown) [Example 13, N-(Cyclopropylmethyl)-3-[2,6-dimethoxy-4-(methoxymethyl)phenyl]-6-methoxy-N-(tetrahydrofuran-3-yl)pyrazolo[5,1-b][1,3]thiazole-7-amine]
17 | 36 | COCc1cc(OC)c(-c2csc3c(N(CC4CC4)CC(C)OC)c(OC)nn23)c(OC)c1 (stereo not shown) [Example 51, N-(Cyclopropylmethyl)-3-[2,6-dimethoxy-4-(methoxymethyl)phenyl]-6-methoxy-N-(2-methoxypropyl)pyrazolo[5,1-b][1,3]thiazole-7-amine]
18 | 31 | COCCN(c1c(OC)nn2c(-c3c(OC)cc(COC)cc3OC)csc12)C1CCC1 [Example 56, N-Cyclobutyl-3-[2,6-dimethoxy-4-(methoxymethyl)phenyl]-6-methoxy-N-(2-methoxyethyl)pyrazolo[5,1-b][1,3]thiazole-7-amine]
19 | 40 | CCCCN(CCOC)c1c(OC)nn2c(-c3c(OC)cc(COC)cc3OC)csc12 [Example 28, N-Butyl-3-[2,6-dimethoxy-4-(methoxymethyl)phenyl]-6-methoxy-N-(2-methoxyethyl)pyrazolo[5,1-b][1,3]thiazole-7-amine]
20 | 24 | CCN(c1c(OC)nn2c(-c3c(OC)cc(COC)cc3OC)csc12)C1CCC1 [Example 59, N-Cyclobutyl-3-[2,6-dimethoxy-4-(methoxymethyl)phenyl]-N-ethyl-6-methoxypyrazolo[5,1-b][1,3]thiazole-7-amine]
21 | 83 | CCCCN(c1c(SC)nn2c(-c3c(OC)cc(COC)cc3OC)csc12)C1CCOCC1 [Example 106, N-Butyl-3-[2,6-dimethoxy-4-(methoxymethyl)phenyl]-6-(methylthio)-N-(tetrahydro-2H-pyran-4-yl)pyrazolo[5,1-b][1,3]thiazole-7-amine]
22 | 89 | CCOc1nn2c(-c3c(OC)cc(COC)cc3OC)csc2c1N(CC1CC1)C1CCOCC1 [Example 81, N-(Cyclopropylmethyl)-3-[2,6-dimethoxy-4-(methoxymethyl)phenyl]-6-ethoxy-N-(tetrahydro-2H-pyran-4-yl)-pyrazolo[5,1-b][1,3]thiazole-7-amine]
23 | 77 | CCCN(c1c(OC)nn2c(-c3c(OC)cc(COC(C)C)cc3OC)csc12)C1CCOCC1 [Example 68, [3-(4-Isopropoxymethyl-2,6-dimethoxyphenyl)-6-methoxy-pyrazolo[5,1-b][1,3]thiazol-7-yl]-propyl-(tetrahydro-pyran-4-yl)-amine]
24 | 73 | COCCCN(c1c(OC)nn2c(-c3c(OC)cc(COC)cc3OC)csc12)C1CCC1 [Example 62, N-Cyclobutyl-3-[2,6-dimethoxy-4-(methoxymethyl)phenyl]-6-methoxy-N-(3-methoxypropyl)pyrazolo[5,1-b][1,3]thiazole-7-amine]
25 | 32 | CCOCc1cc(OC)c(-c2csc3c(N(CCOC)CC4CC4)c(OC)nn23)c(OC)c1 [Example 40, N-(Cyclopropylmethyl)-3-[4-(ethoxymethyl)-2,6-dimethoxyphenyl]-6-methoxy-N-(2-methoxyethyl)pyrazolo[5,1-b][1,3]thiazole-7-amine]
26 | 18 | COCCN(c1c(OC)nn2c(-c3c(OC)cc(COC)cc3OC)csc12)C1CCCC1 [Example 53, N-Cyclopentyl-3-[2,6-dimethoxy-4-(methoxymethyl)phenyl]-6-methoxy-N-(2-methoxyethyl)pyrazolo[5,1-b][1,3]thiazole-7-amine]
27 | 47 | CCOc1nn2c(-c3c(OC)cc(COC)cc3OC)csc2c1N(CC1CCC1)C1CCOCC1 [Example 83, N-(Cyclobutylmethyl)-3-[2,6-dimethoxy-4-(methoxymethyl)phenyl]-6-ethoxy-N-(tetrahydro-2H-pyran-4-yl)-pyrazolo[5,1-b][1,3]thiazole-7-amine]
28 | 89 | CCOCc1cc(OC)c(-c2csc3c(N(CCCF)C4CCOCC4)c(OC)nn23)c(OC)c1 [Example 35, [3-(4-Ethoxymethyl-2,6-dimethoxy-phenyl)-6-methoxy-pyrazolo[5,1-b][1,3]thiazol-7-yl]-(3-fluoro-propyl)-(tetrahydro-pyran-4-yl)-amine]
29 | 88 | COCc1cc(OC)c(-c2csc3c(N(CC4CCC4)CC4C5COCC54)c(OC)nn23)c(OC)c1 (single isomer, unassigned; diastereomer 1) [Example 98, N-(Cyclobutylmethyl)-3-[2,6-dimethoxy-4-(methoxymethyl)phenyl]-6-methoxy-N-[3-oxabicyclo[3.1.0]hex-6-ylmethyl]-pyrazolo[5,1-b][1,3]thiazole-7-amine (diastereomer 1)]
30 | 87 | COCc1cc(OC)c(-c2csc3c(N(CCC(C)OC)CC4CC4)c(OC)nn23)c(OC)c1 (stereo not shown) [Example 50, N-(Cyclopropylmethyl)-3-[2,6-dimethoxy-4-(methoxymethyl)phenyl]-6-methoxy-N-(3-methoxybutyl)pyrazolo[5,1-b][1,3]thiazole-7-amine]
31 | 20 | COCCN(c1c(OC)nn2c(-c3c(OC)cc(COC)cc3OC)csc12)C1CCCCC1 [Example 54, N-Cyclohexyl-3-[2,6-dimethoxy-4-(methoxymethyl)phenyl]-6-methoxy-N-(2-methoxyethyl)pyrazolo[5,1-b][1,3]thiazole-7-amine]
